Data on 18 molecules can be found in patent publication US20220306659A1, “COMPOUND INHIBITING AND INDUCING DEGRADATION OF EGFR AND ALK” (BEIJING TIDE PHARMACEUTICAL CO., LTD., priority 2019, published 2022).

Sequence of Ba/F3(EGFR^Del19/T790M/C797S) cells (P00533 with tags, fused parts or gaps DEL746-750/T790M/C797S): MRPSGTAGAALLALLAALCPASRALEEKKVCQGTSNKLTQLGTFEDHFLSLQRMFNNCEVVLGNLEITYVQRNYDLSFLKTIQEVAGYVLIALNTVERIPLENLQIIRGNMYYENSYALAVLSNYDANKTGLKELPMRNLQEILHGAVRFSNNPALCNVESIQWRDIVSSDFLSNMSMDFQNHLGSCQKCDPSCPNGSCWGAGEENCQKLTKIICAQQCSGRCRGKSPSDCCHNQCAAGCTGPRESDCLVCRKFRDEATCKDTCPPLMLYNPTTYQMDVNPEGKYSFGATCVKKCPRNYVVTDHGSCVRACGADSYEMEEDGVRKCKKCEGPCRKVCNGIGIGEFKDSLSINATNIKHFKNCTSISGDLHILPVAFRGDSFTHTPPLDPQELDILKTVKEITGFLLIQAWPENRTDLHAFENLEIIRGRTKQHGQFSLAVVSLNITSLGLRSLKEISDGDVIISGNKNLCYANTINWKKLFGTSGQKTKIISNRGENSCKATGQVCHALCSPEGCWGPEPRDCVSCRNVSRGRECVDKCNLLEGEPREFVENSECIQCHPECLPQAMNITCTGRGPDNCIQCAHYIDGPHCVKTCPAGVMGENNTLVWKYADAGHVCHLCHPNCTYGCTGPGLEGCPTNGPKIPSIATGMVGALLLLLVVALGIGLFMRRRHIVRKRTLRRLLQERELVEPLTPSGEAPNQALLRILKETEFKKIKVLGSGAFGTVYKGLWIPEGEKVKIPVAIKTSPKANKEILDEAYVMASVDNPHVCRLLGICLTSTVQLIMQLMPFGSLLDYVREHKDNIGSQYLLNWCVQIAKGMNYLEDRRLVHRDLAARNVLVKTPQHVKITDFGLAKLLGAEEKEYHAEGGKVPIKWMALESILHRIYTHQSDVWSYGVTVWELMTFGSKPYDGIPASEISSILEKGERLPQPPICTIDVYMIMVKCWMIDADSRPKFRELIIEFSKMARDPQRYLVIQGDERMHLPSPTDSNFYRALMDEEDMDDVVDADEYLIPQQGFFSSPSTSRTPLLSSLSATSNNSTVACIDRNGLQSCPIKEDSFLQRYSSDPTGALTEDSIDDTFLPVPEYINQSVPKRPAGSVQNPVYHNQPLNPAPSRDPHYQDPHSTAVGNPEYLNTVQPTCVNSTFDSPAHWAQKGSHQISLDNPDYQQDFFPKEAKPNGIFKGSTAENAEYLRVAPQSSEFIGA

This assay addresses Ba/F3(EGFR^Del19/T790M/C797S) cells (Homo sapiens, UniProt P00533, DEL746-750/T790M/C797S, cells depend on it). In words: Assay of activity on Ba/F3 cells (CTG, 72 h). It is filed as cell-based. To be noted: read-out: IC50 (nM) Ba/F3 (EGFR^Del19/T790M/C797S). As for the experimental part: (2) A compound stock solution was prepared, and then diluted 3× to obtain a compound dilution. 30 nL of the compound dilution was added to a 384-well plate by Echo (Labcyte, Echo550). The cells were incubated in an incubator at 37° C. and 5% CO2 for 72 h.
The percent inhibition rate (% inhibition) was calculated by the following formula
LUMcmpd: Luminescence value of assay compound.
LUMpositive: Average LUM value of positive drug at a concentration of 10 μM.
LUMvehicle. Average LUM value of negative control group without drug treatment.
The nonlinear regression curve (dose response-variable slope) between the value of inhibition rate (%) and the logarithm of compound concentration was fitted with graphpad prism 8.0, the effect dose curve of compound was drawn, and the IC50 value was calculated.
Y=Bottom+(Top−Bottom)/(1+1^((LogIC50−X)*HillSlope))
X-axis: logarithm of compound concentration; Y axis: inhibition rate ([…]).
For `COc1cc(N2CCC(N3CCN(CCCC#Cc4cccc5c4CN(C4CCC(=O)NC4=O)C5=O)CC3)CC2)ccc1Nc1ncc(Cl)c(Nc2ccccc2P(C)(C)=O)n1` (stereo not drawn) [Compound C126, 3-(4-(5-(4-(1-(4-((5-chloro-4-((2-(dimethylphosphoryl)phenyl)amino)pyrimidin-2-yl)amino)-3-methoxyphenyl)piperidin-4-yl)piperazin-1-yl)pent-1-yn-1-yl)-1-oxoisoindolin-2-yl)piperidine-2,6-dione], the GI50 was in the range of 1 to 100 nM.
For `COc1cc(N2CCC(N3CCNCC3)CC2)c(C)cc1Nc1ncc(Br)c(Nc2ccc3nccnc3c2P(C)(C)=O)n1` [Compound C158-1] the value was 1 to 100 nM; for `COc1cc(N2CCC(N3CCN(CCCCCCCCC#Cc4cccc5c4CN(C4CCC(=O)NC4=O)C5=O)CC3)CC2)ccc1Nc1ncc(Cl)c(Nc2ccccc2P(C)(C)=O)n1` (stereo not drawn) [Compound C179, 3-(4-(10-(4-(1-(4-((5-chloro-4-((2-(dimethylphosphoryl)phenyl)amino)pyrimidin-2-yl)amino)-3-methoxyphenyl)piperidin-4-yl)piperazin-1-yl)dec-1-yn-1-yl)-1-oxoisoindolin-2-yl)piperidine-2,6-dione], 1 to 100 nM; for `COc1cc(N2CCC3(CCN(CCCCCC#Cc4cc(F)cc5c4CN(C4CCC(=O)NC4=O)C5=O)CC3)CC2)c(C)cc1Nc1ncc(Br)c(Nc2ccc3nccnc3c2P(C)(C)=O)n1` (stereo not drawn) [Compound C185, 3-(4-(7-(9-(4-((5-bromo-4-((5-(dimethylphosphoryl)quinoxalin-6-yl)amino)pyrimidin-2-yl)amino)-5-methoxy-2-methylphenyl)-3,9-diazaspiro[5.5]undecan-3-yl)hept-1-yn-1-yl)-6-fluoro-1-oxoisoindolin-2-yl)piperidine-2,6-dione], 1 to 100 nM.
On to `COc1cc(N2CCC(N3CCN(CCOCC#Cc4cc(C(F)(F)F)cc5c4CN(C4CCC(=O)NC4=O)C5=O)CC3)CC2)ccc1Nc1ncc(Cl)c(Nc2ccccc2P(C)(C)=O)n1` (stereo not drawn) [Compound C200, 3-(4-(3-(2-(4-(1-(4-((5-chloro-4-((2-(dimethylphosphoryl)phenyl)amino)pyrimidin-2-yl)amino)-3-methoxyphenyl)piperidin-4-yl)piperazin-1-yl)ethoxy)prop-1-yn-1-yl)-1-oxo-6-(trifluoromethyl)isoindolin-2-yl)piperidine-2,6-dione], for which the GI50 fell in the range of 101 to 200 nM.
For `COc1cc(N2CCC(N3CCN(CCCCCC#Cc4cc(Cl)cc5c4CN(C4CCC(=O)NC4=O)C5=O)CC3)CC2)ccc1Nc1ncc(Cl)c(Nc2ccccc2P(C)(C)=O)n1` (stereo not drawn) [Compound C202, 3-(6-chloro-4-(7-(4-(1-(4-((5-chloro-4-((2-(dimethylphosphoryl)phenyl)amino)pyrimidin-2-yl)amino)-3-methoxyphenyl)piperidin-4-yl)piperazin-1-yl)hept-1-yn-1-yl)-1-oxoisoindolin-2-yl)piperidine-2,6-dione] the value was 1 to 100 nM; for `COc1cc(N2CCC(N3CCN(CCCCCC#Cc4cc(C#N)cc5c4CN(C4CCC(=O)NC4=O)C5=O)CC3)CC2)ccc1Nc1ncc(Cl)c(Nc2ccccc2P(C)(C)=O)n1` (stereo not drawn) [Compound C204, 7-(7-(4-(1-(4-((5-chloro-4-((2-(dimethylphosphoryl)phenyl)amino)pyrimidin-2-yl)amino)-3-methoxyphenyl)piperidin-4-yl)piperazin-1-yl)hept-1-yn-1-yl)-2-(2,6-dioxopiperidin-3-yl)-3-oxoisoindoline-5-carbonitrile], 1 to 100 nM; for `COc1cc(N2CCC3(CCN(CCCCCCOc4cccc5c4CN(C4CCC(=O)NC4=O)C5=O)CC3)CC2)c(C)cc1Nc1ncc(Br)c(Nc2ccc3nccnc3c2P(C)(C)=O)n1` (stereo not drawn) [Compound C212, 3-(4-((6-(9-(4-((5-bromo-4-((5-(dimethylphosphoryl)quinoxalin-6-yl)amino)pyrimidin-2-yl)amino)-5-methoxy-2-methylphenyl)-3,9-diazaspiro[5.5]undecan-3-yl)hexyl)oxy)-1-oxoisoindolin-2-yl)piperidine-2,6-dione], 1 to 100 nM.
In the case of `COc1cc(N2CCC(N3CCN(CCCC#Cc4ccc5c(c4)CN(C4CCC(=O)NC4=O)C5=O)CC3)CC2)ccc1Nc1ncc(Cl)c(Nc2ccccc2P(C)(C)=O)n1` (stereo not drawn) [Compound C218, 3-(5-(5-(4-(1-(4-((5-chloro-4-((2-(dimethylphosphoryl)phenyl)amino)pyrimidin-2-yl)amino)-3-methoxyphenyl)piperidin-4-yl)piperazin-1-yl)pent-1-yn-1-yl)-1-oxoisoindolin-2-yl)piperidine-2,6-dione], the GI50 lay in the range of 1 to 100 nM.
To `COc1cc(N2CCC(N3CCN(CCCC#Cc4cccc5c4CN(C4CCC(=O)NC4=O)C5=O)CC3)CC2)c(C)cc1Nc1ncc(Br)c(Nc2ccc3nccnc3c2P(C)(C)=O)n1` (stereo not drawn) [Compound C227, 3-(4-(5-(4-(1-(4-((5-bromo-4-((5-(dimethylphosphoryl)quinoxalin-6-yl)amino)pyrimidin-2-yl)amino)-5-methoxy-2-methylphenyl)piperidin-4-yl)piperazin-1-yl)pent-1-yn-1-yl)-1-oxoisoindolin-2-yl)piperidine-2,6-dione] belongs 1 to 100 nM; to `COc1cc(N2CCC3(CCN(CCCC#Cc4cccc5c4CN(C4CCC(=O)NC4=O)C5=O)CC3)CC2)c(C)cc1Nc1ncc(Br)c(Nc2ccc3nccnc3c2P(C)(C)=O)n1` (stereo not drawn) [Compound C228, 3-(4-(5-(9-(4-((5-bromo-4-((5-(dimethylphosphoryl)quinoxalin-6-yl)amino)pyrimidin-2-yl)amino)-5-methoxy-2-methylphenyl)-3,9-diazaspiro[5.5]undecan-3-yl)pent-1-yn-1-yl)-1-oxoisoindolin-2-yl)piperidine-2,6-dione], 1 to 100 nM; to `COc1cc(N2CCC(N3CCN(CCCCCC#Cc4cc(C#N)cc5c4CN(C4CCC(=O)NC4=O)C5=O)CC3)CC2)c(C)cc1Nc1ncc(Br)c(Nc2ccc3nccnc3c2P(C)(C)=O)n1` (stereo not drawn) [Compound C229, 7-(7-(4-(1-(4-((5-bromo-4-((5-(dimethylphosphoryl)quinoxalin-6-yl)amino)pyrimidin-2-yl)amino)-5-methoxy-2-methylphenyl)piperidin-4-yl)piperazin-1-yl)hept-1-yn-1-yl)-2-(2,6-dioxopiperidin-3-yl)-3-oxoisoindoline-5-carbonitrile], 1 to 100 nM.
For `COc1cc(N2CCC(N3CCN(CCCCc4ccc(-c5ccc6c(c5)CN(C5CCC(=O)NC5=O)C6=O)cc4)CC3)CC2)ccc1Nc1ncc(Cl)c(Nc2ccccc2P(C)(C)=O)n1` (stereo not drawn) [Compound C236, 3-(5-(4-(4-(4-(1-(4-((5-chloro-4-((2-(dimethylphosphoryl)phenyl)amino)pyrimidin-2-yl)amino)-3-methoxyphenyl)piperidin-4-yl)piperazin-1-yl)butyl)phenyl)-1-oxoisoindolin-2-yl)piperidine-2,6-dione] the value was 1 to 100 nM.
For `COc1cc(N2CCC(N3CCN(CCCCCCc4cccc5c4CN(C4CCC(=O)NC4=O)C5=O)CC3)CC2)ccc1Nc1ncc(Cl)c(Nc2ccccc2P(C)(C)=O)n1` (stereo not drawn) [Compound C238, 3-(4-(6-(4-(1-(4-((5-chloro-4-((2-(dimethylphosphoryl)phenyl)amino)pyrimidin-2-yl)amino)-3-methoxyphenyl)piperidin-4-yl)piperazin-1-yl)hexyl)-1-oxoisoindolin-2-yl)piperidine-2,6-dione], the GI50 is 1 to 100 nM.
To `COc1cc(N2CCC(N3CCN(CCCCCCCCc4cccc5c4CN(C4CCC(=O)NC4=O)C5=O)CC3)CC2)ccc1Nc1ncc(Cl)c(Nc2ccccc2P(C)(C)=O)n1` (stereo not drawn) [Compound C240, 3-(4-(8-(4-(1-(4-((5-chloro-4-((2-(dimethylphosphoryl)phenyl)amino)pyrimidin-2-yl)amino)-3-methoxyphenyl)piperidin-4-yl)piperazin-1-yl)octyl)-1-oxoisoindolin-2-yl)piperidine-2,6-dione] belongs 1 to 100 nM.
For `COc1cc(N2CCC(N3CCN(CCCCCC#Cc4ccc(F)c5c4CN(C4CCC(=O)NC4=O)C5=O)CC3)CC2)ccc1Nc1ncc(Cl)c(Nc2ccccc2P(C)(C)=O)n1` (stereo not drawn) [Compound C243, 3-(4-(7-(4-(1-(4-((5-chloro-4-((2-(dimethylphosphoryl)phenyl)amino)pyrimidin-2-yl)amino)-3-methoxyphenyl)piperidin-4-yl)piperazin-1-yl)hept-1-yn-1-yl)-7-fluoro-1-oxoisoindolin-2-yl)piperidine-2,6-dione] the value was 1 to 100 nM.
`COc1cc(N2CCC(N3CCN(CCCCCCCc4cccc5c4CN(C4CCC(=O)NC4=O)C5=O)CC3)CC2)ccc1Nc1ncc(Cl)c(Nc2ccccc2P(C)(C)=O)n1` (stereo not drawn) [Compound C245, 3-(4-(7-(4-(1-(4-((5-chloro-4-((2-(dimethylphosphoryl)phenyl)amino)pyrimidin-2-yl)amino)-3-methoxyphenyl)piperidin-4-yl)piperazin-1-yl)heptyl)-1-oxoisoindolin-2-yl)piperidine-2,6-dione]: the GI50 lay in the range of 1 to 100 nM.
Take `COc1cc(N2CCC(N3CCN(CCCC#Cc4cc(C#N)cc5c4CN(C4CCC(=O)NC4=O)C5=O)CC3)CC2)ccc1Nc1ncc(Cl)c(Nc2ccccc2P(C)(C)=O)n1` (stereo not drawn) [Compound C258, 7-(5-(4-(1-(4-((5-chloro-4-((2-(dimethylphosphoryl)phenyl)amino)pyrimidin-2-yl)amino)-3-methoxyphenyl)piperidin-4-yl)piperazin-1-yl)pent-1-yn-1-yl)-2-(2,6-dioxopiperidin-3-yl)-3-oxoisoindoline-5-carbonitrile]: the GI50 is 1 to 100 nM.
